{
  "source": "paper PMC11643744",
  "about": "“New Conjugates of Vancomycin with Cell-Penetrating Peptides—Synthesis, Antimicrobial Activity, Cytotoxicity, and BBB Permeability Studies” (Molecules, 2024)",
  "key": {"[1]": {"tested_on": "E. faecium VRE (clinical isolate UCK 7979384)", "assay": "microbe, parasite or virus in culture", "format": "cell-based", "conditions": "Enterococcus faecium, VRE, read-out: MIC E. faecium VRE", "procedure": "(§1) The antimicrobial activity of the synthesized compounds was evaluated against four reference bacterial strains: Staphylococcus aureus (ATCC 29213), Enterococcus faecalis (ATCC 29212), Escherichia coli (ATCC 25922), and Pseudomonas aeruginosa (ATCC 27853), which are commonly used for determining antibacterial activity. In addition, two clinical strains, S. aureus (MRSA) and E. faecium (VRE), were included in the study. The bacterial strains were inoculated from Selectrol discs (Biomaxima SA, Lublin, Poland) onto blood agar (Graso Biotech, Starogard Gdański, Poland) and incubated at 37 °C for 24 h. Before testing, the strains were cultured aerobically on blood agar at 37 °C for 24 h.\n(§2) The susceptibility of microorganisms to the synthesized compounds was determined using the broth microdilution assay, following the guidelines outlined by CLSI [30]. The final concentrations of the tested compounds in Mueller–Hinton broth, in 96-well plates (VWR International Sp. z o.o., Gdańsk, Poland), ranged from 0.125 to 256 mg/L. To prepare the bacterial suspension, bacteria from the overnight culture on blood agar were diluted in sterile 0.9% NaCl to achieve a turbidity equivalent to a 0.5 McFarland standard. The adjusted inoculum suspension was further diluted in Mueller–Hinton broth so that after inoculation, each well contained approximately 5 × 10^5 CFU/mL. Aliquots (5 µL) of bacterial suspension were added to each solution. The sterility control (containing the broth) and the growth control (containing the reference strain in broth without the tested compound) were also set up. The antibiotics vancomycin and gentamicin were used as a control. The plates were incubated at 37 °C under aerobic conditions. The results are expressed as the MIC of the tested compounds, which was defined as the lowest concentration at which no visible growth of bacteria (no turbidity) was observed. The assay was performed in triplicate."}, "[2]": {"tested_on": "normal human fibroblasts, BJ line (CRL-2522)", "assay": "Neutral red cytotoxicity assay", "conditions": "24 h", "procedure": "Normal human fibroblasts, BJ line (CRL-2522™), Eagle’s Minimum Essential Medium (EMEM), and fetal bovine serum (FBS) were obtained from ATCC (Manassas, VA, USA). Cells were grown following ATCC guidelines in an EMEM medium supplemented with 10% FBS at 37 °C in a humidified atmosphere of 95% air and 5% CO2 in a HeraCell 150 incubator (Heraeus, Hanau, Germany).\nThe assay was performed as per previously published protocols with slight modifications. In brief, BJ cells were plated in 96-well tissue culture plates (Nest Scientific Biotechnology, Wuxi, China) at a density of 6 × 10^3 cells per well and allowed to attach for 24 h in EMEM supplemented with 10% FBS. After the incubation period, the medium was removed, and 10% dimethyl sulfoxide (DMSO)-treated cells (Sigma-Aldrich, St. Louis, MO, USA) were used as a positive control, while nontreated cells served as a negative control.\nThe cells were treated with peptides suspended in EMEM medium supplemented with 10% FBS and incubated for 24 h at 37 °C in a humidified atmosphere of 95% air and 5% CO2. After the incubation, the supernatants were discarded and replaced with 100 µL of non-supplemented EMEM containing 0.33% neutral red (Sigma-Aldrich) diluted 1:40. The cells were incubated for an additional 2 h at 37 °C. Following incubation, the neutral red medium was removed, and the cells were washed with 100 µL of phosphate-buffered saline (PBS) per well.\nTo extract the dye into the solution, the cells were treated with 150 µL of a solution containing 50% ethanol (Alchem, Torun, Poland), 49% distilled H2O, and 1% acetic acid (Alchem, Torun, Poland) and incubated under shaking at 37 °C for 10 min. Absorbance was measured at 540 nm using a Synergy H1 plate reader (BioTek Instruments, Winooski, VT, USA). The assay was performed in triplicate to ensure reproducibility."}, "S. aureus ATCC 29213": {"tested_on": "S. aureus ATCC 29213", "assay": "microbe, parasite or virus in culture", "format": "cell-based, Staphylococcus aureus", "conditions": "Staphylococcus aureus, ATCC29213, read-out: MIC S. aureus ATCC 29213", "procedure": "as §1, §2"}, "[3]": {"tested_on": "S. aureus MRSA (clinical isolate no 203)", "assay": "microbe, parasite or virus in culture", "format": "cell-based, Staphylococcus aureus", "conditions": "Staphylococcus aureus, read-out: MIC S. aureus MRSA", "procedure": "as §1, §2"}, "[4]": {"tested_on": "Pseudomonas aeruginosa (ATCC 27853)", "assay": "Broth microdilution MIC, P. aeruginosa reference strain", "format": "cell-based", "conditions": "at the concentrations tested", "procedure": "as §1\nThe susceptibility of microorganisms to the synthesized compounds was determined using the broth microdilution assay, following the guidelines outlined by CLSI [30]. The final concentrations of the tested compounds in Mueller–Hinton broth, in 96-well plates (VWR International Sp. z o.o., Gdańsk, Poland), ranged from 0.125 to 256 mg/L. To prepare the bacterial suspension, bacteria from the overnight culture on blood agar were diluted in sterile 0.9% NaCl to achieve a turbidity equivalent to a 0.5 McFarland standard. […] The results are expressed as the MIC of the tested compounds, which was defined as the lowest concentration at which no visible growth of bacteria (no turbidity) was observed. […]"}, "S. aureus (ATCC 29213)": {"tested_on": "S. aureus (ATCC 29213)", "assay": "Checkerboard assay, interaction of Van with CPP components (FICI)", "format": "cell-based, Staphylococcus aureus", "conditions": "Van alone", "quoted_text": "To determine possible interactions between Van and the CPP components of the conjugates, fractional inhibitory concentrations (FICs) were calculated for the tested compounds (Prop-Tat (47–57) and Prop-Arg9) using the following formula: FICA = MICA(with B)/MICA, FICB = MICB(with A)/MICB. To determine MICA(with B) and MICB(with A), a checkerboard assay was carried out in 96-well microtiter plates. Each test was performed in duplicate. The concentration range was 1.07 to 8 µg/mL for Van, 2.13 to 16 µg/mL for Prop-Tat (47–58), and 8.54 to 64 µg/mL for Prop-Arg9. Aliquots of 5 μL of bacterial suspension (at a concentration of 10^7 CFU/mL) were added to each well of the 96-well plate containing 100 μL of test compounds in Mueller–Hinton broth. The bacterial strain used was S. aureus (ATCC 29213). The plates were then incubated at 37 °C for 24 h. […] FIC values for Van, Prop-Tat (47–57) and Prop-Arg9 were calculated as follows: FICVan = MICVan+Prop-Tat (47–57) or FICVan = MICVan+Prop-Arg9 divided by MIC of Van alone, FICProp-Tat (47–57) = MICProp-Tat (47–57)+Van divided by MIC of Prop-Tat (47–57) alone, and FICProp-Arg9 = MICProp-Arg9+Van divided by MIC of Prop-Arg9 alone. The FIC indexes (FICIs) were calculated for the tested compounds as the sum of FICA and FICB."}, "PAMPA-BBB assay": {"assay": "PAMPA-BBB assay", "conditions": "20 h incubation, mean ± SEM", "description": "This assay utilized a 96-well plate assembly consisting of a filter plate pre-coated with polar brain lipids (donor plate) and a receiver plate (acceptor plate). The phospholipid mixture used to coat the membrane was extracted from porcine polar brain lipids, with the following composition: 12.6% phosphatidylcholine, 33.1% phosphatidylethanolamine, 18.5% phosphatidylserine, 4.1% phosphatidylinositol, 0.8% phosphatidic acid, and 30.9% of other compounds, including cerebrosides, sulfatides, and pigments.\nIn each well of the donor filtration plate (Multiscreen Filter Plate, PVDF with a pore size of 0.45 µm), 5 µL of the phospholipid mixture in n-dodecane (20 mg/mL) was carefully applied to form the artificial membrane. After coating, 200 µL of phosphate-buffered saline (PBS at pH 7.4) containing 5% dimethyl sulfoxide (DMSO) as a co-solvent, and the test compound (at a concentration of 20 µM) was added to each well of the donor plate (in triplicate). […] The plate lid was then replaced and the resulting assembled donor–acceptor plates were incubated at room temperature for 20 h. After this time, the donor plate was removed and solutions from each well of both acceptor and donor plates were collected for further analysis. The concentrations of the tested compounds were determined by LC-MS. The analysis was conducted by UHPLC-MS system (Shimadzu Nexera X2 with LCMS-2020 detector) using a ReproSil Pure 120 ODS-3 column (Dr. Maisch GmbH, 100 × 2 mm, 2.4 µm particle size) with several gradients of ACN with 0.1% FA and 0.05% TFA at a flow rate of 0.3 mL/min. The eluted solution was monitored by an ESI-MS detector operated in a selected ion monitoring mode (SIM). […] CE=CD×VD+CA×VA/VD+VA"}, "E. faecalis ATCC 29212": {"tested_on": "E. faecalis ATCC 29212", "assay": "microbe, parasite or virus in culture", "format": "cell-based, Enterococcus faecalis", "conditions": "Enterococcus faecalis, ATCC29212, read-out: MIC E. faecalis ATCC 29212", "procedure": "as §1, §2"}},
  "note": "“And” between values parts separate entries of the source, which are not always exact repeats. Equal values may be shown once.",
  "data": [
    {"molecule": "CN[C@H](CC(C)C)C(=O)N[C@H]1C(=O)N[C@@H](CC(N)=O)C(=O)N[C@H]2C(=O)N[C@H]3C(=O)N[C@H](C(=O)N[C@H](C(=O)O)c4cc(O)cc(O)c4-c4cc3ccc4O)[C@H](O)c3ccc(c(Cl)c3)Oc3cc2cc(c3O[C@@H]2O[C@H](CO)[C@@H](O)[C@H](O)[C@H]2O[C@H]2C[C@](C)(N)[C@H](O)[C@H](C)O2)Oc2ccc(cc2Cl)[C@H]1O", "note": "[Vancomycin]", "values": [
      {"measurement": "MIC", "setting": "[1]", "result": "> 256 µg/mL and > 172 µM"},
      {"measurement": "concentration above which cytotoxicity was shown", "setting": "[2]", "result": "above 16 µg/mL"},
      {"measurement": "effect on cell viability", "setting": "[2]; at concentrations up to 4 µg/mL", "result": "did not substantially affect cell viability"},
      {"measurement": "MIC", "setting": "S. aureus ATCC 29213", "result": "2 µg/mL and 1.35 µM"},
      {"measurement": "MIC", "setting": "[3]", "result": "1.5 µg/mL and 1.01 µM"},
      {"measurement": "inhibitory activity against P. aeruginosa", "setting": "[4]", "result": "resistant"},
      {"measurement": "MICA", "setting": "S. aureus (ATCC 29213)", "result": 2, "unit": "µg/mL"},
      {"measurement": "R, mass retention", "setting": "PAMPA-BBB assay", "result": "11.3 ± 3.4", "unit": "%"},
      {"measurement": "MIC", "setting": "E. faecalis ATCC 29212", "result": "8 µg/mL and 5.38 µM"}
    ]}
  ]
}
